# How the values were obtained:
# Type in all cases: physicochemical
# [1] = photochromic response of test squares on an optical bench (sensitivity, saturation optical density, bleach rate); details: for ΔOD @ Saturation (Band A) / ΔOD @ Saturation (Band B): UV exposure 15 minutes; for ΔOD @ Saturation (Band A) / Sensitivity ΔOD/MIN (Band A) / ΔOD @ Saturation (Band B) / Sensitivity ΔOD/MIN (Band B): 72° F. (22.2° C.), polymer test square; for Sensitivity ΔOD/MIN (Band A) / Sensitivity ΔOD/MIN (Band B): first five (5) seconds of UV exposure, expressed per minute; for Bleach Rate T 1/2: measured at band B, room temperature (72° F., 22.2° C.) after removal of activating light
# Protocol: (§1) Testing was done with the photochromic compounds described in Examples 1 through 20 and Comparative Examples 1 through 3 in the following manner. A quantity of photochromic compound calculated to yield a 1.5×10^-3 molal solution was added to a flask containing 50 grams of a monomer blend of 4 parts ethoxylated bisphenol A dimethacrylate (BPA 2EO DMA), 1 part poly(ethylene glycol) 600 dimethacrylate, and 0.033 weight percent 2,2'-azobis(2-methyl propionitrile) (AIBN). The photochromic compound was dissolved into the monomer blend by stirring and gentle heating, if necessary. After a clear solution was obtained, it was poured into a flat sheet mold having the interior dimensions of 2.2 mm×6 inches (15.24 cm)×6 inches (15.24 cm). The mold was sealed and placed in a horizontal air flow, programmable oven programmed to increase the temperature from 40° C. to 95° C. over a 5 hour interval, hold the temperature at 95° C. for 3 hours, lower it to 60° C. over a 2 hour interval and then hold it at 60° C. for 16 hours. After the mold was opened, the polymer sheet was cut using a diamond blade saw into 2 inch (5.1 centimeters) test squares.
# (§2) The photochromic test squares of Part A were tested for photochromic response rates on an optical bench. Prior to testing on the optical bench, the photochromic test squares were exposed to 365 nanometer ultraviolet light for about 15 minutes to activate the photochromic compounds and then placed into a 76° C. oven for about 15 minutes to bleach the photochromic compounds. The test squares were then cooled to room temperature, exposed to fluorescent room lighting for at least 2 hours and then kept covered for at least 2 hours prior to testing on an optical bench maintained at 72° F. (22.2° C.). The bench was fitted with a 250 watt Xenon arc lamp, a remote controlled shutter, a copper sulfate bath acting as a heat sink for the arc lamp, a Schott WG-320 nm cut-off filter which removes short wavelength radiation; neutral density filter(s) and a sample holder in which the square to be tested was inserted. The power output of the optical bench, i.e., the dosage of light that the sample lens would be exposed to, was calibrated with a photochromic test square used as a reference standard. […] The UV-A detector was placed into the sample holder and the light output was measured. Adjustments to the power output were made by increasing or decreasing the lamp wattage or by adding or removing neutral density filters in the light path.
# A monitoring, collimated beam of light from a tungsten lamp was passed through the square at a small angle (approximately 30°) normal to the square. After passing through the square, the light from the tungsten lamp was directed to a detector through Spectral Energy Corp. GM-200 monochromator set at the previously determined visible lambda max of the photochromic compound being measured. The output signals from the detector were processed by a radiometer.
# (§3) Change in optical density (ΔOD) was determined by inserting a test square in the bleached state into the sample holder, adjusting the transmittance scale to 100%, opening the shutter from the Xenon lamp to provide ultraviolet radiation to change the test square from the bleached state to an activated (i.e., darkened) state, measuring the transmittance in the activated state, and calculating the change in optical density according to the formula: ΔOD=log(100/% Ta), where % Ta is the percent transmittance in the activated state and the logarithm is to the base 10.
# The ΔOD/Min, which represents the sensitivity of the photochromic compound's response to UV light, was measured over the first five (5) seconds of UV exposure, then expressed on a per minute basis. The saturation optical density (ΔOD@ Saturation) was taken under identical conditions as the ΔOD/Min, except UV exposure was continued for 15 minutes. […]
# [2] = Relative ΔOD at Saturation Test; details: ΔOD at saturation (Band A)/ΔOD at saturation (Band B)×100
# From the text: In accordance with the present invention, it has now been discovered that certain novel indeno[2,1-f]naphtho[1,2-b]pyrans having two absorption bands in the activated (colored) state, an acceptable fade rate, high activated intensity, a high coloration rate and a rating of 80 or higher in the Relative ΔOD at Saturation Test may be prepared. The Relative ΔOD at Saturation Test is described in Example 21. The ratings of the test are defined herein as the result obtained when the optical density of band "A" is divided by the optical density of band "B" and multiplied by 100. It is believed that compounds having a rating of 80 or higher are most valuable for formulating neutral grays, greens and browns for commercial photochromic ophthalmic eyeware.
# as §1, §2
# as §3, with “10. […]” for “10.”
# [3] = lambda max (Vis) of activated photochromic test squares in a Varian Cary 3 uv-visible spectrophotometer; details: activated form in test square
# Protocol: as §1
# The lambda max (Vis) is the wavelength in the visible spectrum at which the maximum absorption of the activated (colored) form of the photochromic compound in a test square occurs. The lambda max (Vis) wavelengths reported in Table 1 were determined by testing the photochromic test square polymerizates of Part A in a Varian Cary 3 uv-visible spectrophotometer. The bleach rate (T 1/2) is the time interval in seconds for the absorbance of the activated form of the photochromic compound in the test squares to read one half the highest absorbance at room temperature (72° F., 22.2° C.) after removal of the source of activating light.
# For each lambda max visible, the corresponding optical density (Δ OD/Min and Δ OD at saturation) for the desired compounds of the Examples and Comparative Examples are tabulated in Table 1 for the two bands (A and B) of peak absorption for each compound. Table 1 also includes the bleach rate (T 1/2) for each of the compounds as measured at band B. The ratings of the Relative Δ OD at Saturation Test for the bands A and B of each of the Examples and Comparative Examples are calculated as follows: Δ OD at saturation (Band A)/Δ OD at saturation (Band B)×100.
Compound,ΔOD @ Saturation (Band A) [1],Sensitivity ΔOD/MIN (Band A) [1],ΔOD @ Saturation (Band B) [1],Sensitivity ΔOD/MIN (Band B) [1],Bleach Rate T 1/2 [1] [min],Relative ΔOD at Saturation (rating) [2],λ MAX Vis (Band A) [3] [nm],λ MAX Vis (Band B) [3] [nm]
"CCC1(O)c2ccccc2-c2c1c1c(c3cc(OC)c(OC)cc23)OC(c2ccc(OC)cc2)(c2ccc(N3CCOCC3)cc2)C=C1 (centres unmarked) [Example 17, 6,7-dimethoxy-3-(4-methoxyphenyl)-3-(4-morpholinophenyl)-13-hydroxy-13-ethyl-3H,13H-indeno[2,1-f]naphtho[1,2-b]pyran]",0.25,0.21 ΔOD/MIN,0.24,0.18 ΔOD/MIN,1.4,104,480,603
"CCC1(OC)c2ccccc2-c2c1c1c(c3cc(OC)c(OC)cc23)OC(c2ccc(OC)cc2)(c2ccc(N3CCOCC3)cc2)C=C1 (centres unmarked) [Example 18, 3-(4-methoxyphenyl)-3-(4-morpholinophenyl)-6,7-dimethoxy-13-ethyl-13-methoxy-3H,13H-indeno[2,1-f]naphtho[1,2-b]pyran]",0.27,0.21 ΔOD/MIN,0.27,0.18 ΔOD/MIN,1.43,100,483,604
"COc1ccc(C2(c3ccc(N4CCOCC4)cc3)C=Cc3c4c(c5cc(OC)c(OC)cc5c3O2)-c2ccccc2C4(C)O)cc1 (centres unmarked) [Example 19, 3-(4-methoxyphenyl)-3-(4-morpholinophenyl)-6,7-dimethoxy-13-hydroxy-13-methyl-3H,13H-indeno[2,1-f]naphtho[1,2-b]pyran]",0.34,0.18 ΔOD/MIN,0.35,0.22 ΔOD/MIN,1.63,97,481,603
"COc1ccc(C2(c3ccc(N4CCOCC4)cc3)C=Cc3c4c(c5cc(OC)c(OC)cc5c3O2)-c2ccccc2C4(C)OC)cc1 (centres unmarked) [Example 20, 3-(4-methoxyphenyl)-3-(4-morpholinophenyl)-6,7-dimethoxy-13-methoxy-13-methyl-3H,13H-indeno[2,1-f]naphtho[1,2-b]pyran]",0.34,0.16 ΔOD/MIN,0.37,0.17 ΔOD/MIN,1.75,92,483,604
